Data as given in EP0012543A1, “Compositions containing 1,3-dioxolanes as emollients” (IMPERIAL CHEMICAL INDUSTRIES PLC, priority 1978, dated 1980).

System: skin
Assay: Evaluation of emollients: test lotion rated by a panel
Assay type: in vivo, persons
Method: The following basic composition is prepared:
The emollient to be tested is stirred with the other ingredients of the oil phase while heating to 70°C. Meanwhile, ingredients of the water phase are stirred and heated to 72°C. The water phase is then added gradually to the stirred oil phase, and the total mixture is stirred while it cools to room temperature. The emulsion (lotion or cream) is allowed to age for 48 hours at room temperature before evaluation.
For evaluation the subject applies a small amount of the lotion to the inner arm, rubs it into the skin and rates five characteristics: ease of application, moistness, smoothness, greasiness and tackiness. Numerical values are given as follows: poor = 0, average or "not sure" = 1, and good = 2. This is done by an experienced panel of 10 persons and ratings for each emollient are the mean for the 10 subjects. With this system, the highest possible rating is 10; the average emollient has a rating of 5; and the worst score is zero. Most of the emollients of the present invention have ratings well above 5.
Specific examples of acetals of fatty aldehydes are listed following under the name of the polyol. The aldehyde in each case was the mixed C13 and C15 aldehyde used in Example 1.

[1] = 0-10 scale, five characteristics (ease of application, moistness, smoothness, greasiness, tackiness) each rated 0-2, mean of 10 subjects, 7.0 parts emollient in lotion aged 48 hours, rubbed into inner arm

## OCC(O)CO [Glycerol]
[1]
  Emollient Rating: 5.8

## OCCO [Ethylene glycol]
In vivo
  Emollient Rating: 8.6

## CC(O)CO (centres unmarked) [1,2-Propylene glycol]
[1]
  Emollient Rating: 8.1

## OCC(CO)(CO)CO [Pentaerythritol]
[1]
  Emollient Rating: 6.3

## OCCCO [1,3-Propanediol]
[1]
  Emollient Rating: 6.3
